In patent publication US7244608B2, “Microorganism producing 5′-inosinic acid and process for producing 5′-inosinic acid using the same” (priority 2000, dated 2007):

Assays:
[1] = test system: Corynebacterium ammoniagenes strain CJ112 (ATCC-6872); assay: Growth on minimal agar medium containing the agent; biochemical properties of parent strain; type: cell-based
Description: (§1) The biochemical properties of representative variants of the novel strain CJIP009 according to the present invention is shown in the following Table 1 (This invention is not limited to the following properties).
(§2) Corynebacterium ammoniagenes strain CJ112 (ATCC-6872), the parent strain, was suspended to 10^7˜10^8 cells/mL in the phosphate buffer (pH 7.0) or citrate buffer (pH 5.5). N-methyl-N′-nitro-N-nitrosoguanidine (NTG) was added to a final concentration of 10˜50 μg/mL at room temperature or 32° C. After 20˜40 minutes, cells were washed twice with 0.85% saline. Colonies were obtained by suitably suspending and spreading cells on a minimal medium (Medium 2) containing 1.7% agar. Then, each colony was tooth picked on to the minimal medium (Medium 2) containing 1.7% agar and on the minimal medium (Medium 2) containing 1.7% agar and […] of lysozyme. First, microorganisms that grew on the minimal medium containing 1.7% agar, but not on the minimal medium containing 40 μg/mL of lysozyme were selected. […] The colony of highly lysozyme sensitive microorganisms was cultivated on a nutrition medium (Medium 1), then cultivated for 24 hours on a seed medium (Medium 3), and cultivated for 3˜4 days on a culture medium (Medium 4) thereby to select LY002 that can produce 5′-inosinic acid accumulated in the culture medium at the largest amounts.

[2] = test system: Corynebacterium ammoniagenes CJIP009 (KCCM-10226); assay: Growth on minimal agar medium containing the agent; biochemical properties of mutant CJIP009; type: cell-based; conditions: strain CJIP009 (KCCM-10226)
Description: The protocol by which the mutant microorganims of the present invention was isolated began with strain CJ 12 as the parental strain and consisted of several iterations of mutagenesis and screening. In each iteration, microorganisms were treated with X-ray irradiation, ultraviolet ray irradiation, and/or a chemical mutagen, such as N-methyl-N′-nitro-N-nitrosoguanidine (NTG), diethyl sulfate, ethyl amine, etc., and then screened for 5′-inosinic acid production. Treated bacteria were suitably suspended and spread on a minimal medium (Medium 2) containing 1.7% agar and each concentration of variants. Then, each colony was cultivated on a nutrition medium (Medium 1) followed by a seed medium (Medium 3) for 24 hours and a fermentation medium (Medium 4) for […]. Colonies that produced the highest levels of 5′-inosinic acid were selected for subsequent rounds of mutagenesis.
as §1
The mutant of Example 5, strain CITP13, was used as the parent strain for Example 6. CITP13 was suspended to 10^7˜10^8 cells/mL in the phosphate buffer (pH 7.0) or citrate buffer (pH 5.5). NTG mutagenesis was performed as in Example 1. Colonies were obtained by suitably suspending and spreading cells on a 3 minimal media (Medium 2), which contained 1.7% agar and 50 μg/ml, 75 μg/ml, or 100 μg/mL of azaserine, respectively. Then, each colony was cultivated on the nutrition medium (Medium 1), then cultivated for 24 hours on a seed medium (Medium 3), and cultivated for 3–4 days on a culture medium (Medium 4) thereby to select CJIP009 (KCCM-10226) that can produce 5′-inosinic acid accumulated in the culture medium at the largest amounts.

CISM10 = assay: Growth on minimal agar medium containing the agent, strain CISM10; type: cell-based, Corynebacterium ammoniagenes
Description: The mutant of Example 1, strain LY002, was used as the parent strain for Example 2. LY002 was suspended to 10^7˜10^8 cells/mL in the phosphate buffer (pH 7.0) or citrate buffer (pH 5.5). NTG mutagenesis was performed as in Example 1. Colonies were obtained by suitably suspending and spreading cells on a 3 minimal media (Medium 2), which contained 1.7% agar and 1,000 μg/ml, 1,500 μg/mL or 2,000μg/mL of streptomycin, respectively. Then, each colony was cultivated on the nutrition medium (Medium 1), then cultivated for 24 hours on a seed medium (Medium 3), and cultivated for 3˜4 days on a culture medium (Medium 4) thereby to select CISM10 that can produce 5′-inosinic acid accumulated in the culture medium at the largest amounts.
The mutant of Example 2, strain CISM10, was used as the parent strain for Example 3. CISM10 was suspended to 10^7˜10^8 cells/mL in the phosphate buffer (pH 7.0) or citrate buffer (pH 5.5). NTG mutagenesis was performed as in Example 1. Colonies were obtained by suitably suspending and spreading cells on a 3 minimal media (Medium 2), which contained 1.7% agar and 1,500 μg/ml, 2,500 μg/ml, or 3,500 μg/mL of 3,4-dehydroproline, respectively. Then, each colony was cultivated on the nutrition medium (Medium 1), then cultivated for 24 hours on a seed medium (Medium 3), and cultivated for 3–4 days on a culture medium (Medium 4) thereby to select […] that can produce 5′-inosinic acid accumulated in the culture medium at the largest amounts.

CS101 = assay: Growth on minimal agar medium containing the agent, strain CS101; type: cell-based, Corynebacterium ammoniagenes
CITP13 = assay: Growth on minimal agar medium containing the agent, strain CITP13; type: cell-based, Corynebacterium ammoniagenes
Description: The mutant of Example 4, strain CIAC12, was used as the parent strain for Example 5. CIAC12 was suspended to 10^7˜10^8 cells/mL in the phosphate buffer (pH 7.0) or citrate buffer (pH 5.5). NTG mutagenesis was performed as in Example 1. Colonies were obtained by suitably suspending and spreading cells on a 3 minimal media (Medium 2), which contained 1.7% agar and 20 μg/ml, 50 μg/ml, or 100 μg/mL of L-thiazolidine-4-carboxylic acid, respectively. Then, each colony was cultivated on the nutrition medium (Medium 1), then cultivated for 24 hours on a seed medium (Medium 3), and, cultivated for 3˜4 days on a culture medium (Medium 4) thereby to select CITP13 that can produce 5′-inosinic acid accumulated in the culture medium at the largest amounts.
The mutant of Example 5, strain CITP13, was used as the parent strain for Example 6. CITP13 was suspended to 10^7˜10^8 cells/mL in the phosphate buffer (pH 7.0) or citrate buffer (pH 5.5). NTG mutagenesis was performed as in Example 1. Colonies were obtained by suitably suspending and spreading cells on a 3 minimal media (Medium 2), which contained 1.7% agar and 50 μg/ml, 75 μg/ml, or 100 μg/mL of azaserine, respectively. […]

CIAC12 = assay: Growth on minimal agar medium containing the agent, strain CIAC12; type: cell-based, Corynebacterium ammoniagenes
Description: The mutant of Example 3, strain CS101, was used as the parent strain for Example 4. CS101 was suspended to 10^7˜10^8 cells/mL in the phosphate buffer (pH 7.0) or citrate buffer (pH 5.5). NTG muta genesis was performed as in Example 1. Colonies were obtained by suitably suspending and spreading cells on a 3 minimal media (Medium 2), which contained 1.7% agar and 10 μg/ml, 20 μg/ml, or 30 μg/mL of L-azetidine-2-carboxylic acid, respectively. Then, each colony was cultivated on the nutrition medium (Medium 1), then cultivated for 24 hours on a seed medium (Medium 3), and cultivated for 3˜4 days on a culture medium (Medium 4), thereby to select CIAC12 that can produce 5′-inosinic acid accumulated in the culture medium at the largest amounts.

the present strain = assay: Effect of amino acids on synthesis of 5'-inosinic acid by direct fermentation; type: cell-based, Corynebacterium ammoniagenes; conditions: added to the medium
Excerpt: Accordingly, the present inventors tested the effect of various amino acids on the synthesis of 5′-inosinic acid by direct fermentation. As the result, the inventors determined that the fermentation concentration of 5′-inosinic acid increased upon addition of L-glutamine to the medium. The inventors further determined that the appropriate supply of L-glutamine to the present strain is a rate-limiting step in the synthesis of 5′-inosinic acid.

LY002 = assay: Growth on minimal agar medium containing the agent, strain LY002; type: cell-based, Corynebacterium ammoniagenes
Description: as §2
The mutant of Example 1, strain LY002, was used as the parent strain for Example 2. LY002 was suspended to 10^7˜10^8 cells/mL in the phosphate buffer (pH 7.0) or citrate buffer (pH 5.5). NTG mutagenesis was performed as in Example 1. […]

**Q.** What does the source list for `O=C(O)C1C=CCN1` (stereo not shown) [3,4-dehydroproline]?
**A.** Resistance to agent (concentration) ([1]; strain ATCC6872): 1,000 μg/ml; Resistance to agent (concentration) [2]: 3,500 μg/ml; Concentration of 3,4-dehydroproline at which the microorganism shows resistance (CISM10): 1,000 μg/ml; Concentration of 3,4-dehydroproline at which the microorganism shows resistance (CS101): 3,500 μg/ml

**Q.** With `[N-]=[N+]=CC(=O)OC[C@H](N)C(=O)O` [Azaserine] as the molecule, how does the “Resistance to agent (concentration)” value ([1]; strain ATCC6872) read?
**A.** The value was 25 µg/mL.

**Q.** And the “Concentration of azaserine at which the microorganism shows resistance” value [2]?
**A.** The value was 100 µg/mL.

**Q.** What about the “Resistance to agent (concentration)” value [2] of the same molecule?
**A.** Its value is 100 µg/mL.

**Q.** What about the “Concentration of azaserine at which the microorganism shows resistance” value (CITP13) of the same molecule?
**A.** The value was 25 µg/mL.

**Q.** Which “Resistance to agent (concentration)” value ([1]; strain ATCC6872) does the source give for `O=C(O)[C@@H]1CCN1` [L-azetidine-2-carboxylic acid] here?
**A.** Its value is 5000 µg/mL.

**Q.** And the “Resistance to agent (concentration)” value [2]?
**A.** Its value is 30000 µg/mL.

**Q.** And the “Concentration of L-azetidine-2-carboxylic acid at which the microorganism shows resistance” value (CISM10)?
**A.** Its value is 5 mg/mL.

**Q.** What about the “Concentration of L-azetidine-2-carboxylic acid at which the microorganism shows resistance” value (CIAC12) of the same molecule?
**A.** The value was 30 mg/mL.

**Q.** How did the “Fermentation concentration of 5'-inosinic acid upon addition to the medium” value (the present strain) turn out when `NC(=O)CC[C@H](N)C(=O)O` [L-glutamine] was run?
**A.** Its value is “increased”.

**Q.** For `O=C(O)[C@@H]1CSCN1` [L-thiazolidine-4-carboxylic acid], which “Resistance to agent (concentration)” value ([1]; strain ATCC6872) is on record?
**A.** Its value is 10 µg/mL.

**Q.** What about the “Resistance to agent (concentration)” value [2] of the same molecule?
**A.** Its value is 100 µg/mL.

**Q.** What about the “Concentration of L-thiazolidine-4-carboxylic acid at which the microorganism shows resistance” value (CISM10) of the same molecule?
**A.** Its value is 10 µg/mL.

**Q.** What about the “Concentration of L-thiazolidine-4-carboxylic acid at which the microorganism shows resistance” value (CS101) of the same molecule?
**A.** Its value is 100 µg/mL.

**Q.** How did the “Resistance to agent (concentration)” value ([1]; strain ATCC6872) turn out when `[H]/N=C(/N)N[C@H]1[C@H](O)[C@@H](O)[C@H](O[C@@H]2O[C@@H](C)[C@](O)(C=O)[C@H]2O[C@@H]2O[C@@H](CO)[C@H](O)[C@@H](O)[C@@H]2NC)[C@@H](N/C(N)=N\[H])[C@@H]1O` [Streptomycin, streptomycin] was run?
**A.** Its value is 500 µg/mL.

**Q.** What about the “Resistance to agent (concentration)” value [2] of the same molecule?
**A.** Its value is 2,000 μg/ml.

**Q.** What about the “Concentration of streptomycin at which the microorganism shows resistance” value (LY002) of the same molecule?
**A.** The value was 500 µg/mL.

**Q.** What about the “Concentration of streptomycin at which the microorganism shows resistance” value (CISM10) of the same molecule?
**A.** The value was 2,000 μg/ml.

**Q.** What does the source list for lysozyme?
**A.** Sensitivity to lysozyme (minimal growth inhibition concentration) ([1]; strain ATCC6872): 80 µg/mL; Concentration of lysozyme at which the microorganism shows sensitivity ([1]; strain CJ112): 80 µg/mL; Sensitivity to lysozyme (minimal growth inhibition concentration) [2]: 8 µg/mL; Concentration of lysozyme at which the microorganism shows sensitivity (LY002): 8 µg/mL
